We go through 16 compounds from US12448388B2, “PRMT5 inhibitors and uses thereof” (Gilead Sciences, Inc., priority 2023, dated 2025).

Read-outs that look alike come from different tables or passages of the source.

In data set [1] the test system is Symmetric Di-methyl Arginine (SDMA) signal (PRMT5 inhibition) in HCT116 MTAP-deleted cells. In words: Symmetric di-methyl arginine image-based high content screen assay (SDMA assay), HCT116 MTAP-deleted. It counts as cell-based. The settings on record: for EC50 selectivity: HCT116 WT vs HCT116 MTAP-deleted; for EC50: class symbols. An outline of the steps:
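Read-out is imaging of per-cell mean SDMA immunofluorescence (Alexa 488), with cells segmented by DAPI. Cells, MTAP-deleted or wild-type HCT116, were exposed to compound for 3 days at 37 °C before fixation. EC50 derived by 4-parameter non-linear logistic regression.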

In data set [2] the test system is HCT116 MTAP-deleted cell lines. In words: Cell viability assay (CellTiter-Glo, 7 days), HCT116 MTAP-deleted. Also on record: CC50 selectivity: unit not given beside the values. It counts as cell-based. An outline of the steps:
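Read-out was CellTiter-Glo luminescence after a 7-day incubation (37 °C, 5% CO2) of HCT116 cells, MTAP-deleted or WT, on dose-response compound plates. CC50 values come from each line; where marked *, selectivity is overstated because poor solubility impaired the WT CC50 measurement.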
(In general: In ATP-based viability assays light output follows the ATP content of the culture.)

The mark [3] stands for this setting: Homo sapiens, HCT-116, HCT116 MTAP-deleted.
[4] abbreviates: Homo sapiens, HCT-116, cell viability assay, HCT116 MTAP-deleted, class symbols, read-out: CC50.

`Cc1nc(C)n2c1c(N)nc1ccc(C(=O)N(C)[C@@H]3COCc4cc(Br)ccc43)cc12` [Fg-14, (S)-4-amino-N-(7-bromoisochroman-4-yl)-N,1,3-trimethylimidazo[1,5-a]quinoxaline-8-carboxamide] came in with an EC50 selectivity in data set [1] of 158. Further, the EC50 in data set [1] (setting [3]) was 1 to 5 nM. Also, the CC50 in data set [2] (setting [4]) lay in the range of 100 to 1000 nM.
For `Nc1nc2ccc(C(=O)N(Cc3ccc(C(F)(F)F)cn3)C34CC(C3)C4)cc2c2cncn12` [Fg-15, 5-amino-N-(bicyclo[1.1.1]pentan-1-yl)-N-((5-(trifluoromethyl)pyridin-2-yl)methyl)imidazo[1,5-c]quinazoline-9-carboxamide] the same measures were 8, > 5 nM and > 1000 nM.
Turning to `Nc1nc2ccc(C(=O)N(Cc3cc4ccccn4n3)C34CC(C3)C4)cc2c2cncn12` [Fg-16, 5-amino-N-(bicyclo[1.1.1]pentan-1-yl)-N-(pyrazolo[1,5-a]pyridin-2-ylmethyl)imidazo[1,5-c]quinazoline-9-carboxamide], in data set [1], the EC50 selectivity is given as 6. Further, the EC50 in data set [1] (setting [3]) is > 5 nM. The CC50 in data set [2] (setting [4]) is > 1000 nM.
Take `Cc1nc(C)n2c1c(N)nc1ccc(C(=O)N(C)[C@@H]3COc4cc(C(F)(F)F)ccc43)cc12` [Fg-18, (S)-4-amino-N,1,3-trimethyl-N-(6-(trifluoromethyl)-2,3-dihydrobenzofuran-3-yl)imidazo[1,5-a]quinoxaline-8-carboxamide]: the EC50 selectivity in data set [1] was found to be 275. This compound gave a concentration for a half-maximal effect (EC50) in data set [1] (setting [3]) of 1 to 5 nM. In data set [2] (setting [4]), the CC50 was 100 to 1000 nM.
For `Cc1ncn2c1c(N)nc1ccc(C(=O)N3C[C@@H](C)O[C@@H]4Cc5cc(C(F)(F)F)ccc5[C@@H]43)cc12` [Fg-35, (4-amino-3-methylimidazo[1,5-a]quinoxalin-8-yl)((2R,4aS,9aR)-2-methyl-7-(trifluoromethyl)-2,3,9,9a-tetrahydroindeno[2,1-b][1,4]oxazin-4(4aH)-yl)methanone], the EC50 selectivity in data set [1] is 151. In data set [1] (setting [3]), this compound showed a concentration for a half-maximal effect (EC50) of 1 to 5 nM. In data set [2] (setting [4]), the CC50 was < 100 nM.
In data set [1], `C[C@H]1CN(C(=O)c2cc3c(cc2F)nc(N)c2cncn23)[C@H]2c3ccc(C(F)(F)C(F)(F)F)cc3C[C@H]2O1` [Fg-38, (4-amino-7-fluoroimidazo[1,5-a]quinoxalin-8-yl)((2S,4aS,9aR)-2-methyl-7-(perfluoroethyl)-2,3,9,9a-tetrahydroindeno[2,1-b][1,4]oxazin-4(4aH)-yl)methanone] returned an EC50 selectivity of 31. Also, the EC50 in data set [1] (setting [3]) lay in the range of 1 to 5 nM. Besides, the CC50 in data set [2] (setting [4]) is < 100 nM.
With `Nc1nc2cc(F)c(C(=O)N3CCC[C@@H]4Oc5cc(C(F)(F)C(F)(F)F)ncc5[C@@H]43)cc2n2cncc12` [Fg-40, (4-amino-7-fluoroimidazo[1,5-a]quinoxalin-8-yl)((4aS,9bS)-7-(perfluoroethyl)-3,4,4a,9b-tetrahydrofuro[3,2-b:4,5-c′]dipyridin-1(2H)-yl)methanone], in data set [1], the EC50 selectivity was found to be 92. In addition, in data set [1] (setting [3]), the concentration for a half-maximal effect (EC50) is ≤ 1 nM. Also, the CC50 in data set [2] (setting [4]) is < 100 nM.
Regarding `Cc1ncn2c1c(N)nc1cc(F)c(C(=O)N3CCC[C@@H]4Oc5cc(C(F)(F)C(F)(F)F)ncc5[C@@H]43)cc12` [Fg-41, (4-amino-7-fluoro-3-methylimidazo[1,5-a]quinoxalin-8-yl)((4aS,9bS)-7-(perfluoroethyl)-3,4,4a,9b-tetrahydrofuro[3,2-b:4,5-c′]dipyridin-1(2H)-yl)methanone], the EC50 selectivity in data set [1] stood at 42. In data set [1] (setting [3]), this compound yielded an EC50 of 1 to 5 nM. The CC50 in data set [2] (setting [4]) was < 100 nM.
In the case of `Nc1nc2cnc(C(=O)N3CCC[C@@H]4Oc5cc(S(F)(F)(F)(F)F)ccc5[C@@H]43)cc2n2cncc12` [Fg-42, (4-aminoimidazo[1,5-a]pyrido[3,4-e]pyrazin-8-yl)((4aS,9bS)-7-(pentafluoro-16-sulfaneyl)-3,4,4a,9b-tetrahydrobenzofuro[3,2-b]pyridin-1(2H)-yl)methanone], the EC50 in data set [1] (HCT116 MTAP-deleted) was ≤ 1 nM. Moreover, in data set [1], the EC50 selectivity came out at 57. Also, in data set [2], the CC50 is < 100 nM and the CC50 selectivity worked out at 38.
In data set [1], `Nc1nc2cnc(C(=O)N3C[C@@H](F)C[C@@H]4Oc5cc(OC(F)(F)F)ccc5[C@@H]43)cc2n2cncc12` [Fg-44, (4-aminoimidazo[1,5-a]pyrido[3,4-e]pyrazin-8-yl)((3S,4aS,9bS)-3-fluoro-7-(trifluoromethoxy)-3,4,4a,9b-tetrahydrobenzofuro[3,2-b]pyridin-1(2H)-yl)methanone] yielded an EC50 selectivity of 119. For the same compound, the EC50 in data set [1] (setting [3]) is ≤ 1 nM. The CC50 in data set [2] (setting [4]) is < 100 nM.
For `Cc1ncn2c1c(N)nc1cnc(C(=O)N3C[C@@H](F)C[C@@H]4Oc5cc(OC(F)(F)F)ccc5[C@@H]43)cc12` [Fg-46, (4-amino-3-methylimidazo[1,5-a]pyrido[3,4-e]pyrazin-8-yl)((3S,4aS,9bS)-3-fluoro-7-(trifluoromethoxy)-3,4,4a,9b-tetrahydrobenzofuro[3,2-b]pyridin-1(2H)-yl)methanone], in data set [1], the EC50 selectivity is reported as 273. In addition, the EC50 in data set [1] (setting [3]) was ≤ 1 nM. In data set [2] (setting [4]), the CC50 was < 100 nM.
For `CN(C(=O)c1cc2c(cc1Br)nc(N)c1cncn12)[C@@H]1COc2cc(C(F)(F)F)ccc21` [Fg-48, (S)-4-amino-7-bromo-N-methyl-N-(6-(trifluoromethyl)-2,3-dihydrobenzofuran-3-yl)imidazo[1,5-a]quinoxaline-8-carboxamide] the same measures were 94, ≤ 1 nM and < 100 nM.
`C#Cc1cc2nc(N)c3cncn3c2cc1C(=O)N(C)[C@@H]1COc2cc(C(F)(F)F)ccc21` [Fg-49, (S)-4-amino-7-ethynyl-N-methyl-N-(6-(trifluoromethyl)-2,3-dihydrobenzofuran-3-yl)imidazo[1,5-a]quinoxaline-8-carboxamide] showed an EC50 selectivity in data set [1] of 70. Moreover, the EC50 in data set [1] (setting [3]) was ≤ 1 nM. In data set [2] (setting [4]), the CC50 is < 100 nM.
The compound `Nc1nc2cc(Br)c(C(=O)N3CCC[C@@H]4Oc5cc(C(F)(F)F)ccc5[C@@H]43)cc2n2cncc12` [Fg-50, (4-amino-7-bromoimidazo[1,5-a]quinoxalin-8-yl)((4aS,9bS)-7-(trifluoromethyl)-3,4,4a,9b-tetrahydrobenzofuro[3,2-b]pyridin-1(2H)-yl)methanone] came in with an EC50 selectivity in data set [1] of 47. In addition, the concentration giving a half-maximal response (EC50) in data set [1] (setting [3]) was ≤ 1 nM. The CC50 in data set [2] (setting [4]) is < 100 nM.
Regarding `C=Cc1cc2nc(N)c3cncn3c2cc1C(=O)N(C)[C@@H]1COc2cc(C(F)(F)F)ccc21` [Fg-51, (S)-4-amino-N-methyl-N-(6-(trifluoromethyl)-2,3-dihydrobenzofuran-3-yl)-7-vinylimidazo[1,5-a]quinoxaline-8-carboxamide], the EC50 selectivity in data set [1] is recorded as 319. The compound also gave an EC50 in data set [1] (setting [3]) of 1 to 5 nM. In data set [2] (setting [4]), the CC50 is < 100 nM.
In data set [1], `C[C@H]1C[C@@H]2Oc3cc(OC(F)(F)F)ccc3[C@@H]2N(C(=O)c2cc3c(cn2)nc(N)c2cncn23)C1` [Fg-54, (4-aminoimidazo[1,5-a]pyrido[3,4-e]pyrazin-8-yl)((3S,4aS,9bS)-3-methyl-7-(trifluoromethoxy)-3,4,4a,9b-tetrahydrobenzofuro[3,2-b]pyridin-1(2H)-yl)methanone] came in with an EC50 selectivity of 69. Besides, the EC50 in data set [1] (setting [3]) is ≤ 1 nM. The CC50 in data set [2] (setting [4]) was < 100 nM.

As a reminder, the EC50 is the concentration needed to bring the measured effect to its halfway point. The CC50 is the concentration that lowers cell viability or growth by half.
